Assay results published in article PMC7049616 (Acta Pharmaceutica Sinica. B, 2019).

How the values were obtained:
TEL-PDGFRa-BaF3 = test: cells; conditions: 72 h
TEL-FLT3-BaF3 = test: cells; conditions: 72 h
TEL-CSF1R-BaF3 = test: Anti-proliferation assay; type: cell-based; conditions: 72 h
BaF3 = test: Anti-proliferation assay; type: cell-based; conditions: Mus musculus, BaF3, 72 h
TEL-FGFR1-BaF3 = test: cells; conditions: 72 h
[1] = Acute toxicity study, single oral dose, 7 days observation; type: in vivo, ICR mice; conditions: for toxicity observation in acute toxicity study: ICR mice; for Number of deaths (death/total): female ICR mice, 7 days
TEL-cKIT-BaF3 = test: cells; conditions: 72 h
TEL-FGFR4-BaF3 = test: Anti-proliferation assay; type: cell-based; conditions: 72 h
TEL-PDGFRb-BaF3 = test: cells; conditions: 72 h
TEL-EPHA2-BaF3 = test: Anti-proliferation assay; type: cell-based; conditions: 72 h
TEL-EPHA1-BaF3 = test: Anti-proliferation assay; type: cell-based; conditions: 72 h
P210-BaF3 = test: Anti-proliferation assay; type: cell-based; conditions: 72 h
HUVEC cells = conditions: after 12 h
TEL-VEGFR1-BaF3 = test: Anti-proliferation assay; type: cell-based; conditions: 72 h
TEL-FGFR2-BaF3 = test: Anti-proliferation assay; type: cell-based; conditions: 72 h
TEL-VEGFR3-BaF3 = test: Anti-proliferation assay; type: cell-based; conditions: 72 h
Pharmacokinetics study = type: in vivo, Sprague–Dawley rats; conditions: male, Sprague-Dawley, rat, plasma
TEL-BMX-BaF3 = test: Anti-proliferation assay; type: cell-based; conditions: 72 h
TEL-RET-BaF3 = test: cells; conditions: 72 h
TEL-FGFR3-BaF3 = test: Anti-proliferation assay; type: cell-based; conditions: 72 h

CCN(CC)CCNC(=O)c1c(C)[nH]c(/C=C2\C(=O)Nc3ccc(F)cc32)c1C [Sunitinib]
GI50 (TEL-PDGFRa-BaF3): 1 nM | GI50 (TEL-FLT3-BaF3): 32 nM | GI50 (TEL-CSF1R-BaF3): 11 nM | GI50 (BaF3): 2560 nM | GI50 (TEL-FGFR1-BaF3): 1680 nM | toxicity observation in acute toxicity study ([1]; single dose 500 mg/kg, recovered starting from day 4): apparent body weight loss | toxicity observation in acute toxicity study ([1]; single dose 1000 mg/kg): unrecovered body weight loss | toxicity observation in acute toxicity study ([1]; single dose 2000 mg/kg): mice death on day 3 | Number of deaths (death/total) ([1]; single oral dose 125 mg/kg): ♀: 0/2 | Number of deaths (death/total) ([1]; single oral dose 250 mg/kg): ♀: 0/2 | Number of deaths (death/total) ([1]; single oral dose 500 mg/kg): ♀: 0/2 | Number of deaths (death/total) ([1]; single oral dose 1000 mg/kg): ♀: 0/2 | Number of deaths (death/total) ([1]; single oral dose 2000 mg/kg): ♀: 2/2 | GI50 (TEL-cKIT-BaF3): 81 nM | GI50 (TEL-FGFR4-BaF3): 2820 nM | GI50 (TEL-PDGFRb-BaF3): < 1 nM | GI50 (TEL-EPHA2-BaF3): 1270 nM | GI50 (TEL-EPHA1-BaF3): 3210 nM | GI50 (P210-BaF3): 1460 nM | HUVEC migration in wound-healing assay (HUVEC cells): less migrated HUVEC cells | GI50 (TEL-VEGFR1-BaF3): 350 nM | GI50 (TEL-FGFR2-BaF3): 4 nM | GI50 (TEL-VEGFR3-BaF3): 570 nM | AUC(0-inf) (Pharmacokinetics study; iv, 1 mg/kg): 145 ± 39.6 ng·h/mL | AUC(0-t) (Pharmacokinetics study; iv, 1 mg/kg): 143 ± 40.3 ng·h/mL | Cmax (Pharmacokinetics study; iv, 1 mg/kg): 236 ± 66.8 ng/mL | MRT last (Pharmacokinetics study; iv, 1 mg/kg): 0.98 ± 0.04 h | Tmax (Pharmacokinetics study; iv, 1 mg/kg): 0.33 h | half-life (Pharmacokinetics study; iv, 1 mg/kg): 1.05 ± 0.34 h | bioavailability (Pharmacokinetics study; oral, 10 mg/kg): 75.7% | AUC(0-inf) (Pharmacokinetics study; po, 10 mg/kg): 1100 ± 96.7 ng·h/mL | AUC(0-t) (Pharmacokinetics study; po, 10 mg/kg): 927 ± 108 ng·h/mL | Cmax (Pharmacokinetics study; po, 10 mg/kg): 175 ± 21.7 ng/mL | MRT last (Pharmacokinetics study; po, 10 mg/kg): 7.63 ± 0.3 h | Tmax (Pharmacokinetics study; po, 10 mg/kg): 1.25 ± 1.06 h | half-life (Pharmacokinetics study; po, 10 mg/kg): 1.38 ± 0.46 h | GI50 (TEL-BMX-BaF3): 3020 nM | GI50 (TEL-RET-BaF3): 110 nM | GI50 (TEL-FGFR3-BaF3): 370 nM
